Substitutions are numbered along the chain they refer to.
Experiments:
AHR [1] = system: AHR; parameters: method as in PMID 33230523; conditions: human cells overexpressing either AHR version; cited from earlier work
AHR [2] = system: AHR; parameters: method as in PMID 33260776; conditions: 10 nM, H9 cells; two genes less expressed, 14 higher expressed; cited from earlier work
AHR^V381 [3] = molecular target: T1, AHR^V381 (Homo sapiens, UniProt P35869); conditions: AHR^V381 cells, 4 h
T1 sequence (P35869 11-848): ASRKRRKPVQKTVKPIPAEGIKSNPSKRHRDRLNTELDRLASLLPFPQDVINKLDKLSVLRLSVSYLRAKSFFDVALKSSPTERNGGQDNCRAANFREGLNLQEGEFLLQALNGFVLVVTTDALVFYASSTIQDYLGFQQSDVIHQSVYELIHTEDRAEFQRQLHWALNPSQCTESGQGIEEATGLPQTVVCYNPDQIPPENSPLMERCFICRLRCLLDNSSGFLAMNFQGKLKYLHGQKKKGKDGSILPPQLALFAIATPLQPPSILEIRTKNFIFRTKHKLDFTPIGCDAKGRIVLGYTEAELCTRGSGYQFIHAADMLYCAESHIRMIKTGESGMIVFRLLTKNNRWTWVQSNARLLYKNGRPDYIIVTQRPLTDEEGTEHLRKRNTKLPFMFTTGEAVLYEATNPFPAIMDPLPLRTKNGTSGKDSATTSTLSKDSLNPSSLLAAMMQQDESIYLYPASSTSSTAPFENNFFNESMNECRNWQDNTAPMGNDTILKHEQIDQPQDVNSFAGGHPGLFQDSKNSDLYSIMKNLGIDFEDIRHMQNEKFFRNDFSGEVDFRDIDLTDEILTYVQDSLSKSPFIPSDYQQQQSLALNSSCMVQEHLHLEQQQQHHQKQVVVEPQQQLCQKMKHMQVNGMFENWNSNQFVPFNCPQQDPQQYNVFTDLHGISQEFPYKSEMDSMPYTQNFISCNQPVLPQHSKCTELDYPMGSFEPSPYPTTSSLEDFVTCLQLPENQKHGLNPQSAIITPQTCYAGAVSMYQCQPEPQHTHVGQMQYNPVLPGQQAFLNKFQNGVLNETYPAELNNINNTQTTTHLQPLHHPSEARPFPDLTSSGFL
Experimental: We incubated the cells with different concentrations of AHR ligands and measured CYP1A1 and CYP1B1 mRNA levels after 4 h.
Error bars show SDs of four independent ligand treatments. qPCR were performed in triplicates.
AHR, CYP1A1 and CYP1B1 relative quantification and ligand assays
were purchased from Sigma-Aldrich, dissolved in DMSO (Invitrogen, D12345) to generate stocks 2000x
the final concentrations used in the ligand assays and stored at -20°C.
Four days prior to cell harvest, a single cell solution was prepared with Accutase and the cells were
3000 cells per well were seeded in 96 well plates
and cultured under normal cell culture conditions for four days, with the last media change 24h before cell
harvest. Ligands were added to a final concentration of 0.05% DMSO in the culture medium for four hours
similar to other work (13-15). Cell harvest, reverse transcription and quantitative real-time PCR was […]
for several samples also AHR was measured in a 20 µl multiplexed quantitative PCR reaction with 10 µl […]
GUSB) or Thermo Fisher Scientific (CYP1B1, AHR), sequences: Suppl, Table S1). Quantitative PCR was […]
5 min, 45x (95 °C 5 s, 60 °C 15 s, 72 °C 15 s, plate read). […]
Cq values were determined with Bio-Rad Laboratories’ CFX-Manager (version 3.1) and relative […]
gene in untreated wild type cells. The data were plotted and analyzed using GraphPad Prism (version 8.4.3). […]

AHR^A381 = molecular target: T2, AHR^A381 (Homo sapiens, UniProt P35869, V381A); conditions: 5 µM, 4 h
T2 sequence (P35869 11-848 V381A): T1 sequence (P35869 11-848) with V371A
Text: (§1) the manufacturer's instructions.
(§2) manufacturer’s instructions.

AHR^V381 [4] = molecular target: T1, AHR^V381; assay: RNA sequencing of treated versus mock-treated AHR^V381-expressing H9 cells; assay type: cell-based; parameters: they had not been changed in the editing process; endogenous in cells; host or cells: H9 human embryonic stem cells, a pool of 13 control clones that went through editing but remained wild type; conditions: 5 µM, 4 h
Text: as §1, §2

In the case of `Clc1cc2c(cc1Cl)Oc1cc(Cl)c(Cl)cc1O2` [2,3,7,8-Tetrachlorodibenzo-p-dioxin], the “difference between the two AHR forms in induction of CYP1A1” value (AHR [1]) is listed as “no differences” and the “number of the 117 differentially expressed genes affected by TCDD exposure” value (AHR [2]) is listed as 16 genes.

For `c1ccc2c(c1)cc1ccc3cccc4ccc2c1c34` [Benzo(a)pyrene], the “concentration at which CYP1A1 and CYP1B1 mRNA levels are slightly induced” value (AHR^V381 [3]) was 1000 nM.

For `Cc1ccccc1N=Nc1ccc(NC(=O)c2ccnn2C)c(C)c1` [CH-223191], the “number of the 117 genes differing between AHR^A381 and AHR^V381 cells that change expression upon inhibitor treatment” value (AHR^A381) was 20 genes, the “number of the 117 genes differing between AHR^A381 and AHR^V381 cells that change expression upon inhibitor treatment” value (AHR^V381 [4]) was “none” and the “target gene expression upon inhibitor treatment” value (AHR^V381 [4]) was “tends to be further reduced upon treatment with the inhibitor, albeit not significantly so”.
